Experimental findings from patent publication US9422339B2, “Immunomodulating cyclic compounds” (Aurigene Discovery Technologies Limited, priority 2012, dated 2016) are described below.

Like-named read-outs stand apart in the source and are kept apart here. Where a SMILES comes first, the peptide text is derived from it. Bridges are numbered along the chain shown (N, C = ends). [ ]: non-standard residue; d: D form. ξ: configuration not given here. ξE = NC(CCC(=O)O)C(=O)O; ξQ = NC(=O)CCC(N)C(=O)O; ξK = NCCCCC(N)C(=O)O; Ahx = NCCCCCC(=O)O; ξS = NC(CO)C(=O)O

One data set addresses T1, PD1-PDL1 interaction (Homo sapiens, UniProt Q9NZQ7).
T1 construct: endogenous in cells; host or cells: MDA-MB-231 tumor cells (PD-L1); primary splenocytes of C57BL/6 mice (PD-1)
The data set is described as follows: CFSE mouse splenocyte proliferation assay (FACS), co-culture with MDA-MB-231 tumor cells expressing PD-L1. The note with it: for % Splenocyte proliferation: mouse splenocytes stimulated with anti-CD3/CD28, co-culture with MDAMB231 over expressing PDL1, 72 hrs, background 13, stimulated splenocytes 72. Type of data set: cell-based. As for the experimental part: The effect of PD1 derived peptides on mouse splenocyte proliferation inhibited by PDL1/PDL2 or tumor cells expressing PDL; analyzed by Fluorescence Activated Cell Shorting (FACS) method using CFSE labeling. Mouse splenocytes harvested from 6-8 weeks old C57 BL6 mice; RPMI 1640 (GIBCO, Cat #11875); DMEM with high glucose (GIBCO, Cat # D6429); Fetal Bovine Serum [Hyclone, Cat # SH30071.03]; Penicillin (10000 unit/ml)-Streptomycin (10,000 μg/ml) Liquid (GIBCO, Cat #15140-122); MEM Sodium Pyruvate solution 100 mM (100×), Liquid (GIBCO, Cat #11360); Nonessential amino acid (GIBCO, Cat #11140); L-Glutamine (GIBCO, Cat #25030); Anti-CD3 antibody (eBiosciences—16-0032); Anti-CD28 antibody (eBiosciences—16-0281); ACK lysis buffer (1 mL) (GIBCO, Cat #—A10492); Histopaque (density-1.083 gm/ml) (SIGMA 10831); Trypan blue solution (SIGMA-T8154); 2 ml Norm Ject Luer Lock syringe—(Sigma 2014-12); 40 μm nylon cell strainer (BD FALCON 35230); Hemacytometer (Bright line-SIGMA Z359629); FACS Buffer (PBS/0.1% BSA): Phosphate Buffered Saline (PBS) pH 7.2 (HiMedia TS1006) with 0.1% Bovine Serum Albumin (BSA) (SIGMA A7050) and sodium azide (SIGMA 08591); 5 mM stock solution of CFSE: CFSE stock solution was prepared by diluting lyophilized CFSE with 180 μL of Di methyl Sulfoxide (DMSO C2H6SO, SIGMA-D-5879) and aliquoted in to tubes for further use. Working concentrations were titrated from 10 μM to 1 μM. (eBioscience—650850-85); 0.05% Trypsin and 0.02% EDTA (SIGMA 59417C); 96-well format ELISA plates (Corning CLS3390); BD FACS caliber (E6016). Splenocytes harvested in a 50 ml falcon tube by mashing spleen in a 40 μm cell strainer were further treated with 1 ml ACK lysis buffer for 5 mins at room temperature. After washing with 9 ml of RPMI complete media, cells were re-suspended in 3 ml of 1×PBS in a 15 ml tube. 3 ml of histopaque was added very carefully to the bottom of the tube without disturbing overlaying splenocyte suspension. Spin the tube at 800×g for 20 mins at room temperature. Opaque layer of lymphocytes was collected carefully without disturbing/mixing any of the layers. Cells were washed twice with cold 1×PBS followed by total cell counting using trypan blue exclusion method and used further for cell based assays. Tumor cells were cultured and maintained in high glucose complete DMEM media. 1×10^5 tumor cells were plated in 96 well plates along with required conc. of PD1 derived peptide and allowed to adhere at 37° C. for 4 hrs. 1×10^6 cells/ml of harvested splenocytes were treated with 5 μM of CFSE in pre warmed 1×PBS/0.1% BSA solution for 10 mins at 37° C. Excess CFSE was quenched using 5 volumes of ice-cold culture media to the cells and incubated on ice for 5 mins. CFSE labeled splenocytes were further given three washes with ice cold complete DMEM media. CFSE labeled 1×10^5 splenocytes were added to above wells containing tumors cells and PD1 peptides. Splenocytes were stimulated with anti-CD3 and anti-CD28 antibody (1 μg/ml each) and the co-culture was further incubated for 72 hrs at 37° C. with 5% CO2. Cells were harvested and washed thrice with ice cold FACS buffer and % proliferation was analyzed using a FACS caliber with 488 nm excitation and 521 nm emission filters. Each experimental condition was carried out in triplicates and each experiment at least carried out three times % splenocyte proliferation was analyzed using cell quest FACS program and fold induction was calculated by normalizing individual values to % background proliferation Fold Induction=% splenocyte proliferation/% background proliferation Stimulated splenocytes: Splenocytes+anti-CD3/CD28 stimulation Background proliferation: Splenocytes+anti-CD3/CD28+PDL or Tumor Compound effect was examined by adding required conc. of compound to anti-CD3/CD28 stimulated splenocytes in presence of ligand (PDL-1/PDL-2) or tumor cells.

In another data set the test system is B16F10 cells. The data set is described as follows: In vivo efficacy on lung metastasis in B16F10 subcutaneous melanoma model. The note with it: C57/Black6 female mice, 5 mg/kg subcutaneously once daily for fourteen days. How it is done:
C57/Black6 female mice (Aurigene, Bangalore, India) aged 6 to 8 weeks were used for the experiment. Animals were acclimatized for a week in the experimental room before conducting the experiment. On day 0, B16F10 cells grown in DMEM containing 10% FBS at 70 to 75% confluency were harvested and 0.1×10^6 cells per animal were injected to mice subcutaneously on the right flank region. On day 1, peptide (Compound #2) at 5 mg/kg dose dissolved in PBS, pH 7.4 was dosed subcutaneously at the rate of 10 ml/kg volume for fourteen days once daily. Vehicle control group of mice received only saline. Taxol at 5 MPK (i.p) with qd dosing was used as reference in this study. Each group consisted of ten animals. Body weight and clinical signs were recorded daily. […] At the end of 14 days of dosing period lung was harvested and analysed for metastasis by counting the black nodules.

The mark [1] stands for this setting: % splenocyte proliferation/% background proliferation, MDAMB231 over expressing PDL1, background 1.0, stimulated splenocytes 5.5.

T1 sequence (Q9NZQ7 19-290): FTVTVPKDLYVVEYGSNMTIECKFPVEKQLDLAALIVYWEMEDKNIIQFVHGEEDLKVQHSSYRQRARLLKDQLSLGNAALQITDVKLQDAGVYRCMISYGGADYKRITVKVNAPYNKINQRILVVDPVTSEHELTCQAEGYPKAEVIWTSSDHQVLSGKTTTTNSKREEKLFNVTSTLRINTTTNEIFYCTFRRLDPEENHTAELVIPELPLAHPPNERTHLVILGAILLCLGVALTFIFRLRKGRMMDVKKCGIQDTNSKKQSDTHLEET

Turning to `C[C@@H](O)[C@@H]1NC(=O)[C@H](CC(N)=O)NC(=O)C(CO)NC(=O)C(CCC(N)=O)NC(=O)[C@H](Cc2ccccc2)NC(=O)[C@H](CO)NC(=O)[C@H](CCC(=O)O)NC(=O)[C@H](CO)NC1=O` (stereo partly shown) [Compound 14] (cyclo(ESF[ξQ][ξS]NTS)), at PD1-PDL1 interaction (setting [1]), the Fold induction worked out at 4.2. Moreover, the “% Splenocyte proliferation” value on PD1-PDL1 interaction worked out at 55%.

For `C[C@@H](O)[C@@H]1NC(=O)C(NC(=O)[C@@H](N)CO)CCCCNC(=O)CCC(C(=O)N[C@@H](CO)C(=O)N[C@@H](Cc2ccccc2)C(N)=O)NC(=O)[C@H](CO)NC1=O` (stereo partly shown) [Compound 1] (H-S[ξK]TS[ξE]SF-NH2; lactam 2-5), at PD1-PDL1 interaction, the Fold induction came to 4.6 and the “% Splenocyte proliferation” value turned out to be 60%.

In the case of `C[C@@H](O)[C@@H]1NC(=O)[C@H](CC(N)=O)NC(=O)C(CO)NC(=O)C(CCC(N)=O)NC(=O)CCCCCNC(=O)[C@H](Cc2ccccc2)NC(=O)[C@H](CO)NC(=O)[C@H](CCC(=O)O)NC(=O)[C@H](CO)NC1=O` (stereo partly shown) [Compound 15] (cyclo([Ahx][ξQ][ξS]NTSESF)), at PD1-PDL1 interaction, the Fold induction is listed as 4 and the “% Splenocyte proliferation” value was 53%.

The compound `C[C@@H](O)[C@@H]1NC(=O)[C@H](CCC(=O)O)NC(=O)C(CO)NC(=O)CCC(C(N)=O)NC(=O)[C@H](Cc2ccccc2)NC(=O)[C@H](CO)NC(=O)[C@H](CCCCN)NC(=O)[C@H](CO)NC1=O` (stereo partly shown) [Compound 20] ([ξS]ETSKSF[ξE]-NH2; lactam N-8) returned a Fold induction on PD1-PDL1 interaction (setting [1]) of 2.8. The “% Splenocyte proliferation” value at PD1-PDL1 interaction turned out to be 36%.

As to `CC[C@H](C)[C@H](NC(=O)[C@H](CO)NC(=O)C1CCCCNC(=O)CCC(NC(=O)[C@@H](N)CO)C(=O)N[C@@H]([C@@H](C)O)C(=O)N[C@@H](CO)C(=O)N1)C(N)=O` (stereo partly shown) [Compound 5] (H-S[ξE]TS[ξK]SI-NH2; lactam 2-5; N-terminus assumed), on PD1-PDL1 interaction (setting [1]), the Fold induction is listed as 3.2. Also, the “% Splenocyte proliferation” value at PD1-PDL1 interaction is recorded as 42%.

As for `C[C@@H](O)[C@@H]1NC(=O)[C@@H](NC(=O)[C@@H](N)CO)CCC(=O)NCCCC[C@@H](C(=O)N[C@@H](CO)C(=O)N[C@@H](Cc2ccccc2)C(N)=O)NC(=O)[C@H](CO)NC1=O` [Compound 2] (H-SETSKSF-NH2; lactam 2-5), the Fold induction at PD1-PDL1 interaction (setting [1]) came to 4.3. Also, at PD1-PDL1 interaction, the “% Splenocyte proliferation” value was found to be 57%. Also, in the data set with B16F10 cells, the “body weight reduction during the period of dosing” value is reported as “no body weight reduction” and the clinical signs result is “no clinical signs observed”.

Take `CC[C@H](C)[C@H](N)C(=O)NC1CCC(=O)NCCCCC(C(=O)N[C@@H](CO)C(=O)N[C@@H](Cc2ccccc2)C(N)=O)NC(=O)[C@H](CO)NC(=O)[C@H]([C@@H](C)O)NC1=O` (stereo partly shown) [Compound 6] (H-I[ξE]TS[ξK]SF-NH2; lactam 2-5; N-terminus assumed): the Fold induction at PD1-PDL1 interaction (setting [1]) came to 4.2. For the same compound, the “% Splenocyte proliferation” value on PD1-PDL1 interaction is 55%.

Take `CC(C)[C@H](NC(=O)C1CCCCNC(=O)CCC(NC(=O)[C@@H](N)CO)C(=O)N[C@@H]([C@@H](C)O)C(=O)N[C@@H](CO)C(=O)N1)C(=O)N[C@@H](Cc1ccccc1)C(N)=O` (stereo partly shown) [Compound 7] (H-S[ξE]TS[ξK]VF-NH2; lactam 2-5; N-terminus assumed): the Fold induction at PD1-PDL1 interaction (setting [1]) amounted to 4.0. Further, the “% Splenocyte proliferation” value at PD1-PDL1 interaction worked out at 52%.

As to `CC[C@H](C)[C@H](N)C(=O)NC1CCC(=O)NCCCCC(C(=O)N[C@@H](CO)C(=O)NC(CCC(N)=O)C(=O)O)NC(=O)[C@H](CO)NC(=O)[C@H](CCSC)NC1=O` (stereo partly shown) [Compound 11] (H-I[ξE]MS[ξK]S[ξQ]-OH; lactam 2-5; N-terminus assumed), the Fold induction at PD1-PDL1 interaction (setting [1]) is 4.2. For the same compound, the “% Splenocyte proliferation” value on PD1-PDL1 interaction came to 54%.

`CC[C@H](C)[C@H](N)C(=O)NC1CCC(=O)NCCCCC(C(=O)N[C@H](C(=O)NC(CCC(N)=O)C(=O)O)C(C)C)NC(=O)[C@H](CO)NC(=O)[C@H](CCSC)NC1=O` (stereo partly shown) [Compound 12] (H-I[ξE]MS[ξK]V[ξQ]-OH; lactam 2-5): on PD1-PDL1 interaction (setting [1]), the Fold induction was found to be 3.0. Also, the “% Splenocyte proliferation” value on PD1-PDL1 interaction was determined as 39%.

`C[C@@H](O)[C@@H]1NC(=O)C(NC(=O)[C@@H](N)CCC(=O)O)CCC(=O)NCCCCC(C(=O)N[C@@H](CO)C(=O)N[C@@H](Cc2ccccc2)C(N)=O)NC(=O)[C@H](CO)NC1=O` (stereo partly shown) [Compound 4] (H-E[ξE]TS[ξK]SF-NH2; lactam 2-5; N-terminus assumed) returned a Fold induction at PD1-PDL1 interaction (setting [1]) of 2.8. In addition, the “% Splenocyte proliferation” value at PD1-PDL1 interaction came out at 36%.

For the compound `C[C@@H](O)[C@@H]1NC(=O)[C@H](CCC(=O)O)NC(=O)C(CO)NC(=O)C(CCC(N)=O)NC(=O)[C@H](Cc2ccccc2)NC(=O)[C@H](CO)NC(=O)[C@H](CCCCN)NC(=O)[C@H](CO)NC1=O` (stereo partly shown) [Compound 16] (cyclo(ETSKSF[ξQ][ξS])), the Fold induction on PD1-PDL1 interaction (setting [1]) was 2.8. In addition, on PD1-PDL1 interaction, the “% Splenocyte proliferation” value is given as 36%.

The compound `C[C@@H](O)[C@@H]1NC(=O)[C@H](CCC(=O)O)NC(=O)C(CO)NC(=O)CCCCCNC(=O)C(CCC(N)=O)NC(=O)[C@H](Cc2ccccc2)NC(=O)[C@H](CO)NC(=O)[C@H](CCCCN)NC(=O)[C@H](CO)NC1=O` (stereo partly shown) [Compound 17] (cyclo([Ahx][ξS]ETSKSF[ξQ])) yielded a Fold induction on PD1-PDL1 interaction (setting [1]) of 3.2. Besides, the “% Splenocyte proliferation” value on PD1-PDL1 interaction amounted to 42%.
